Common to all, as to type: functional
Holding throughout (settings): read-out: IZ

In assay [1] the test system is Candida albicans. The assay is described as follows: Antifungal activity against Candida albicans at 10 ug.
Assay [2] concerns Candida albicans. In words: Antifungal activity against Candida albicans at 0.1 ug.
The test system of assay [3] is Bacillus subtilis. In words: Antibacterial activity against Bacillus subtilis at 0.1 ug.
Assay [4] deals with Bacillus subtilis. The assay is described as follows: Antibacterial activity against Bacillus subtilis at 1 ug.

In the case of `COc1cc(CCNC(C)=O)c2c(c1OC)SSS2` [VARACIN A ACETATE], the zone of inhibition at 10 µg/disc with Candida albicans [1] came out at 20 mm. Still for that read-out and setting: to `COc1cc(CCNC(C)=O)c2c(c1OC)SSSSS2` [VARACIN ACETATE] belongs 20 mm; to `COc1cc(CCNC(C)=O)c2c(c1OC)[S+]([O-])SS2` (configuration not stated) [VARACIN B ACETATE], 20 mm; to `COc1cc(CCNC(C)=O)c2c(c1OC)SS[S+]2[O-]` (configuration not stated) [VARACIN C ACETATE], 20 mm. As for `COc1cc(CCN)c2c(c1OC)SSSSS2` [VARACIN], the zone of inhibition at 0.1 µg/disc in the assay with Candida albicans [2] and with Bacillus subtilis [3] was 20 mm each time. In addition, the zone of inhibition at 1 µg/disc in the assay on Bacillus subtilis [4] worked out at 20 mm.

Values taken from ChEMBL document CHEMBL1159222, “Varacin and three new marine antimicrobial polysulfides from the far-eastern ascidian Polycitor sp” (1995).
